Earlier results as cited in patent publication US20190219580A1, “METHODS OF DRUG THERAPY SELECTION FOR BREAST CANCER PATIENTS BASED ON HER2 AND HER3 PATHWAY SUBTYPING” (Nestec S.A., priority 2016, published 2019).
Read-outs that look alike come from different tables or passages of the source.

How the values were obtained:
[1] = system: progressive, locally advanced, or metastatic HER2-positive breast cancer; settings: human, in vivo
breast cancer = settings: monotherapy
[2] = system: HER2-positive breast cancer
[3] = system: HER2-positive metastatic and locally advanced breast cancer; settings: first-line therapy
[4] = system: HER2-positive, locally advanced disease without previous treatment
[5] = system: tumor xenografts which overexpress HER2; settings: in vivo
[6] = trastuzumab-refractory patients

Row | Compound | median TTP [1] | response rate (breast cancer; trastuzumab-naive patients) | response rate (breast cancer; [6]) | toxicity in the run-in phase ([2]; with EC-DOC) | pCR rate (no invasive disease in breast) ([2]; with epirubicin, cyclophosphamide followed by docetaxel (EC-DOC), n=620) | overall response rate [3] | pCR rate ([4]; patients with low PTEN expression and PI3 kinase mutation) | pCR rate ([4]; single agent first, followed by trastuzumab/docetaxel ×4 cycles) | phosphorylation of MAPK and AKT signal transduction pathways (BT474 cell lines) | tumor growth [5]
1 | CCCCCOC(=O)Nc1nc(=O)n([C@@H]2O[C@H](C)[C@@H](O)[C@H]2O)cc1F [capecitabine] | 4.4 months | – | – | – | – | – | – | – | – | –
2 | CS(=O)(=O)CCNCc1ccc(-c2ccc3ncnc(Nc4ccc(OCc5cccc(F)c5)c(Cl)c4)c3c2)o1 [lapatinib] | – | 24% | 5.1% | lowered due to toxicity | 35% | 24% | 87% | 68% | – | –
3 | CCOc1cc2ncc(C#N)c(Nc3ccc(OCc4ccccn4)c(Cl)c3)c2cc1NC(=O)/C=C/CN(C)C [neratinib] | – | 56% | 26% | – | – | – | – | – | effectively repressed | repress tumor growth in a dose-dependent manner
